Values quoted from earlier work, collected in patent publication US20110268798A1, “ORALLY DISNTEGRATING TABLETS FOR THE TREATMENT OF PAIN” (ADD ADVANCED DRUG DELIVERY TECHNOLOGIES LTD, priority 2009, published 2011).

Experiments:
[1] = not given; remark: listed apart in the source

| solubility in ether | solubility in methylene chloride (methylene chloride) | solubility in water | solubility in alcohol (alcohol) | solubility in chloroform (chloroform) | stability versus pH ([1]; pH) | stability versus temperature ([1]; temperature) | Compound | stability in air / moisture ([1]; dry air, moisture) |
| --- | --- | --- | --- | --- | --- | --- | --- | --- |
| very slightly soluble | very slightly soluble | sparingly soluble |  |  |  |  | CC(=O)Nc1ccc(O)cc1 [Acetaminophen, N-(4-hydroxyphenyl)acetamide] |  |
| soluble |  | slightly soluble | freely soluble | soluble | pH-dependent stability profile | sensitive to temperature | CC(=O)Oc1ccccc1C(=O)O [Acetylsalicylic acid, 2(acetyloxy)benzoic acid] | stable in dry air but hydrolyses in contact with moisture to acetic and salicylic acids |
